The target of this assay is T1, CysLT2 receptor (Homo sapiens, UniProt Q9NS75).
T1 construct: host or cells: HEK 293 cells
T1 sequence (Q9NS75 1-346): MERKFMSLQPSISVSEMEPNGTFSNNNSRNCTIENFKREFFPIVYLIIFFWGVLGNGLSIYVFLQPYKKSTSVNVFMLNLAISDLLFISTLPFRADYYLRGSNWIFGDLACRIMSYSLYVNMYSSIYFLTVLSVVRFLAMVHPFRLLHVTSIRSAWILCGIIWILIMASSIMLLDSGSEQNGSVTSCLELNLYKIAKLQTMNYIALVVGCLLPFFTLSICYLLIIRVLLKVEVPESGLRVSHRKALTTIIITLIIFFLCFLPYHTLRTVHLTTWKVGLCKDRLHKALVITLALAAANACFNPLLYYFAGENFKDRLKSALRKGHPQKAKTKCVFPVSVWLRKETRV
Put plainly: CysLT2 calcium mobilisation assay in HEK 293 cells. The class given is cell-based. The note with it: HEK293, 30 nM LTC4, HEK-293 cells expressing CysLT2, read-out: inhibition of calcium mobilisation (CysLT2 antagonism). The method, then:
FIG. 15 tables the percentage inhibition by compounds 11B_CC11_HCl and 11B_CC16_HCl on the cysteinyl leukotriene pathway in in vitro and ex vivo assays. […] For in vitro cysteinyl leukotriene cell-based assays 11B_CC11_HCl and 11B_CC16_HCl, were tested at 30 μM concentration in duplicate, in a single experiment for their ability to inhibit the calcium mobilisation response of the CysLT1 receptor to 0.1 nM leukotriene D4 in CHO cells over-expressing the CysLT1 receptor or the calcium mobilisation response of the CysLT2 receptor to 30 nM of leukotriene C4 in HEK 293 cells over expressing the CysLT2 receptor.
Target profiling using Cerep and Eurofins/Panlabs profiling screens was undertaken using 11B_CC11_HCl and 11B_CC16_HCl in order to investigate the mechanism of action. […] Test substance (30 LM)-induced isometrically recorded contraction by 50 percent or more within 5 min, relative to control 3 nM leukotriene D4 response, indicates possible cysteinyl-leukotriene LT1 receptor agonist activity. […] To measure inhibition of cysteinyl leukotriene 1 (CysLT1 [LTD4]) and cysteinyl leukotriene 2 (CysLT2 [LTC4]) receptor activity, calcium mobilisation was measured using Fluor-3-loaded CHO cells (for cysLT1 assays) or HEK-293 cells (for CysLT2 assays) which stably express either the CysLT1 or CysLT2 receptors. […]
(Calcium assays in cells follow changes in intracellular calcium, usually with a dye or a luminescent sensor.)

Inhibition data for one compound are collected here from patent US9815788B2, “Anti-angiogenic compounds” (University College Dublin National University of Ireland, …, priority 2012, dated 2017).

As for `C/C(=C\c1ccccc1O)c1ccc2ccccc2n1.Cl` [Compound 11B_CC11_HCl, (E)-2-(2-Quinolin-2-yl-propenyl)-phenol HCl salt], the inhibition at 30 µM was determined as 41%.

What is called inhibition is the change of the read-out against control, counted positive when it falls.
